Broadly, the IC50 is the concentration that inhibits the measured activity by half.

One assay has as its target T1, wild type FGFR-4 (Homo sapiens, UniProt P22455).
T1 construct: purchased Carna Biosciences, Inc
Put plainly: FGFR-4 wild type assay at Km (Caliper mobility shift). Format: biochemical. To be noted: wild type FGFR-4, 400 uM ATP, 25 C, 90 minutes. The protocol:
(§1) In order to assess the activity of chemical compounds against the relevant kinase of interest, the Caliper LifeSciences electrophoretic mobility shift technology platform is utilized. Fluorescently labeled substrate peptide is incubated in the presence dosed levels of compounds, a set concentration of kinase and of ATP, so that a reflective proportion of the peptide is phosphorylated. At the end of the reaction, the mix of phosphorylated (product) and non-phosphorylated (substrate) peptides are passed through the microfluidic system of the Caliper LabChip® EZ Reader II, under an applied potential difference. The presence of the phosphate group on the product peptide provides a difference in mass and charge between the product peptide and the substrate peptide, resulting in a separation of the substrate and product pools in the sample. As the pools pass the LEDS within the instrument, these pools are detected and resolved as separate peaks. The ratio between these peaks therefore reflects the activity of the chemical matter at that concentration in that well, under those conditions.
FGFR-4 wild type assay at Km: In each well of a 384-well plate, 0.5 ng/ul of wild type FGFR-4 (Carna Biosciences, Inc.) was incubated in a total of 12.5 ul of buffer (100 mM HEPES pH 7.5, 0.015% Brij 35, 10 mM MgCl2, ImM DTT) with 1 uM CSKtide (5-FAM-KKKKEEIYFFFG-NH2) and 400 uM ATP at 25 C for 90 minutes in the presence or absence of a dosed concentration series of compound (1% DMSO final concentration). The reaction was stopped by the addition of 70 ul of Stop buffer (100 mM HEPES pH 7.5, 0.015% Brij 35, 35 mM EDTA and 0.2% of Coating Reagent 3 (Caliper Lifesciences)). The plate was then read on a Caliper LabChip® EZ Reader II (protocol settings: −1.9 psi, upstream voltage −700, downstream voltage −3000, post sample sip 35 s).
Such assays, carried out with a range of doses of test compounds, allow the determination of an approximate IC50 value. […] The following table lists the IC50 values of certain compounds of the invention.

Assay [1] deals with patient-derived liver cancer cell line LIXC012. Put plainly: Antiproliferative activity, ATPlite Luminescence Assay. Format: cell-based. To be noted: FGF19-overexpressing LIXC012 cells, about 72 hours, 5% FBS; read-out: LIXC012 IC50 (cellular antiproliferative). Here is the method: The antiproliferative activity of compounds are assessed in the patient-derived liver cancer cell line LIXC012 (Shanghai ChemPartner Co., LTD) by PerkinElmer ATPlite™ Luminescence Assay System. LIXC012 cell line has a FGFR-4 aberrant signaling pathway (FGF19-overexpressing). Briefly, the various test cancer cell lines are plated at a density of about 1×10^4 cells per well in Costar 96-well plates, and are incubated with different concentrations of compounds for about 72 hours in medium supplemented with 5% FBS. One lyophilized substrate solution vial is then reconstituted by adding 5 mL of substrate buffer solution, and is agitated gently until the solution is homogeneous. About 50 μL of mammalian cell lysis solution is added to 100 μL of cell suspension per well of a microplate, and the plate is shaken for about five minutes in an orbital shaker at ˜700 rpm. This procedure is used to lyse the cells and to stabilize the ATP. Next, 50 μL substrate solution is added to the wells and microplate is shaken for five minutes in an orbital shaker at ˜700 rpm. Finally, the luminescence is measured by a PerkinElmer TopCount® Microplate Scintillation Counter. Such assays, carried out with a range of doses of test compounds, allow the determination of the cellular anti-antiproliferative IC50 of the compounds of the present invention. The following table lists the IC50 values of certain compounds of the invention in the FGF19-overexpressing Patient-Derived liver cancer cell line LIXC012.
Background: In ATP-based viability assays light output follows the ATP content of the culture.

In a further assay the target is T2, wild type FGFR-3 (Homo sapiens, UniProt P22607).
T2 construct: purchased Carna Biosciences, Inc
T2 sequence (P22607 23-806): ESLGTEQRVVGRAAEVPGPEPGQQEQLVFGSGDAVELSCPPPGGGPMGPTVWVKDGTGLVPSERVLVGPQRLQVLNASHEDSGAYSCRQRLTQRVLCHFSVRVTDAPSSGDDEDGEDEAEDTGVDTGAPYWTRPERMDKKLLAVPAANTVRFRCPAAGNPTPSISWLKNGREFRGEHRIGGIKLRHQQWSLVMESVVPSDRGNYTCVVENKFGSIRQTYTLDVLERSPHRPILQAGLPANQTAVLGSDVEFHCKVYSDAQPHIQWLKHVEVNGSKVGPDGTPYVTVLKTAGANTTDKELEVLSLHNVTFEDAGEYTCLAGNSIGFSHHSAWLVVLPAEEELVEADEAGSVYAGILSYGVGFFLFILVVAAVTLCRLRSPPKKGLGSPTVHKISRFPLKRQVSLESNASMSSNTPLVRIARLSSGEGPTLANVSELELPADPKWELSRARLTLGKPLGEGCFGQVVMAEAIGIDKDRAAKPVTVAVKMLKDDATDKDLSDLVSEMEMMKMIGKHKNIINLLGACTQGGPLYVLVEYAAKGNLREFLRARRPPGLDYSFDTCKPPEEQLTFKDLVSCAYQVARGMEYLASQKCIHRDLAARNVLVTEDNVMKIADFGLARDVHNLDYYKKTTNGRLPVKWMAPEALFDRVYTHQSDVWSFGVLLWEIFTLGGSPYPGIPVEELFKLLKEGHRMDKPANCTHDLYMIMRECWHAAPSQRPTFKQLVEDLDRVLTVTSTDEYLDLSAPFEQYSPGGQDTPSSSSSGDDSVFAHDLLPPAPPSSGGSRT
Put plainly: FGFR-3 wild type assay at Km (Caliper mobility shift). Format: biochemical. Conditions: wild type FGFR-3, 400 uM ATP, 25 C, 90 minutes. Here is the method:
as §1, with “conditions. […]” for “conditions.”

The target in a further assay is T3, wild type FGFR-2 (Homo sapiens, UniProt P21802).
T3 construct: purchased Carna Biosciences, Inc
T3 sequence (P21802 22-821): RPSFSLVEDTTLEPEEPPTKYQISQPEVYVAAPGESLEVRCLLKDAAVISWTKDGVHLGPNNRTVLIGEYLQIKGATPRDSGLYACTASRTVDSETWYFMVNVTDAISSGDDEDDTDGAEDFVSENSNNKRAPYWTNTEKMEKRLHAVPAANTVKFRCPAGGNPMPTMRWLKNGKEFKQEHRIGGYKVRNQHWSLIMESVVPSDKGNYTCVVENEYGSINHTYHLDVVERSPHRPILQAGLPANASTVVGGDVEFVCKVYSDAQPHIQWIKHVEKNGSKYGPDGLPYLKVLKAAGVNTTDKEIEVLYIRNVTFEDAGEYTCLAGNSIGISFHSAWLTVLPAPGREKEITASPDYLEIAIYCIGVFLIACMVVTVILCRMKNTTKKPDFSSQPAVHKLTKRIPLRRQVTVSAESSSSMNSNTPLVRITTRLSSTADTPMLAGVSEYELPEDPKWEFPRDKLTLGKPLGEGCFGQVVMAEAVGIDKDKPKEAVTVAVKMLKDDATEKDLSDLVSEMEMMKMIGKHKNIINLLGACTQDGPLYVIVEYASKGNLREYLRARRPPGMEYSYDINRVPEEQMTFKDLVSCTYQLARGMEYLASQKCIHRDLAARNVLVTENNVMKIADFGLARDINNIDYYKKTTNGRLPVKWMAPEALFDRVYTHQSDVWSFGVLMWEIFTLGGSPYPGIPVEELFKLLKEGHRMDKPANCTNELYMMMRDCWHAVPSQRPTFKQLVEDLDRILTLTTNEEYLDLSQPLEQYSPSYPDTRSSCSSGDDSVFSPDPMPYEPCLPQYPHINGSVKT
Put plainly: FGFR-2 wild type assay at Km (Caliper mobility shift). Format: biochemical. Conditions: wild type FGFR-2, 400 uM ATP, 25 C, 90 minutes. The protocol:
as §1, with “conditions. […]” for “conditions.”

For another assay, the target named is T4, wild type FGFR-1 (Homo sapiens, UniProt P11362).
T4 construct: purchased Carna Biosciences, Inc
T4 sequence (P11362 22-822): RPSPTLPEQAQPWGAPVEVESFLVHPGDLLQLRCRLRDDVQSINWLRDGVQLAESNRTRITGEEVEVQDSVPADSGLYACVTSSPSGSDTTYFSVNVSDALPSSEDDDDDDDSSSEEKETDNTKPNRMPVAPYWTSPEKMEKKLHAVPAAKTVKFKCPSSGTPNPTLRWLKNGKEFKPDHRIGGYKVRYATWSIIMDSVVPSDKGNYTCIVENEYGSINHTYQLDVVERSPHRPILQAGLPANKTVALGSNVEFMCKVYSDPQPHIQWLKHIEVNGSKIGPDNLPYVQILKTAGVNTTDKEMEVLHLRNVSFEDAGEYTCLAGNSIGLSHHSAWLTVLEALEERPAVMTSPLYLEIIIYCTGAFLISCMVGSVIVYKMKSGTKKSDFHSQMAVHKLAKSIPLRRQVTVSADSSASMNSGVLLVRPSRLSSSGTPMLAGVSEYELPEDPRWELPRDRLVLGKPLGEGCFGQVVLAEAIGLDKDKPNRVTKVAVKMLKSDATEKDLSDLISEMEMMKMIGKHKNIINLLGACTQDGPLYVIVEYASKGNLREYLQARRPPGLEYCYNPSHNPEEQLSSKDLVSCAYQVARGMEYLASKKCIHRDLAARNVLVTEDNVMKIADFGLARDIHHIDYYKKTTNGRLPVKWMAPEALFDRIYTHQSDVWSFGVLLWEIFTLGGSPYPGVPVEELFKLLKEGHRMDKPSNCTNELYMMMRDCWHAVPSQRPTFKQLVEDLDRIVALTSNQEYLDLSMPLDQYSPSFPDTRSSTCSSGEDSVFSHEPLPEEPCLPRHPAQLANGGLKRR
The assay can be described thus: FGFR-1 wild type assay at Km (Caliper mobility shift). Format: biochemical. Conditions: wild type FGFR-1, 400 uM ATP, 25 C, 90 minutes. Here is the method: as §1, with “conditions. […]” for “conditions.”

T1 sequence (P22455 22-802): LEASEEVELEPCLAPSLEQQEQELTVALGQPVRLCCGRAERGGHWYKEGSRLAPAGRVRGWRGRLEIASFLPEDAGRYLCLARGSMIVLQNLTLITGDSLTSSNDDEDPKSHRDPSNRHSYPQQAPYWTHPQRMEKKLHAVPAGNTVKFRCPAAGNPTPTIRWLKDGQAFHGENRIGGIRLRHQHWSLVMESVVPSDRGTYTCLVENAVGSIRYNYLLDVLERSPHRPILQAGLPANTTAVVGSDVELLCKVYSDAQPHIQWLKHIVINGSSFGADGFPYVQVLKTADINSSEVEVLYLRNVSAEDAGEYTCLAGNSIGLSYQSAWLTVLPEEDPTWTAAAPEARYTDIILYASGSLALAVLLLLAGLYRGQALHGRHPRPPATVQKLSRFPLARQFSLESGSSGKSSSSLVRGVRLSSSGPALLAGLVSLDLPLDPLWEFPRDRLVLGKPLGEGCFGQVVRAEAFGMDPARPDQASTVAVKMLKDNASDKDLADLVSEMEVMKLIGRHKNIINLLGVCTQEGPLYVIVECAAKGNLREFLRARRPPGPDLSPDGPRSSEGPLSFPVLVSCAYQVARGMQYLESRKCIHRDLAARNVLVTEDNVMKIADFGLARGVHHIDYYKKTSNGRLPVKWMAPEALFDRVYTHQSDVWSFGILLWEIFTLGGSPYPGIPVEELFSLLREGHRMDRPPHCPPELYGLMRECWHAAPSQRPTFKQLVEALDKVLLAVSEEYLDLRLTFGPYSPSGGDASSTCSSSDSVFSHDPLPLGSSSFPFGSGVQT

Regarding `C=CC(=O)Nc1cccc(C)c1Nc1ncc2cc(-c3c(Cl)c(OC)cc(OC)c3Cl)c(=O)n(CC3CCN(C(=O)/C=C/CN(C)C)C3)c2n1` (stereo not shown) [CY-15-5], the IC50 on wild type FGFR-4 was under 0.05 µM.
Still for that read-out and setting: the figure for `C=CC(=O)Nc1cccc(C)c1Nc1ncc2cc(-c3c(Cl)c(OC)cc(OC)c3Cl)c(=O)n(CC3CN(C(=O)/C=C/CN(C)C)C3)c2n1` [CY-15-4] is under 0.05 µM; for `C=CC(=O)Nc1cccc(C)c1Nc1ncc2cc(-c3c(Cl)c(OC)cc(OC)c3Cl)c(=O)n(CCN3CCN(C(=O)C=C)CC3)c2n1` [CY-15-7] it is under 0.05 µM.
For `C=CC(=O)Nc1cccc(C)c1Nc1ncc2cc(-c3c(Cl)c(OC)cc(OC)c3Cl)ccc2n1` [BLU9931, reference compound], the IC50 in assay [1] was determined as 0.28 µM.
On to `C=CC(=O)Nc1cccc(C)c1Nc1ncc2cc(-c3c(Cl)c(OC)cc(OC)c3Cl)c(=O)n(CC3CCN(C(=O)/C=C/CN(C)C)CC3)c2n1` [CY-15-6], for which the 50% inhibitory concentration (IC50) at wild type FGFR-4 was under 0.05 µM.
As for `C=CC(=O)Nc1ccc(CCn2c(=O)c(-c3c(Cl)c(OC)cc(OC)c3Cl)cc3cnc(Nc4c(C)cccc4NC(=O)C=C)nc32)cc1` [CY-15-3, N-(4-(2-(2-(2-acrylamido-6-methylphenylamino)-6-(2,6-dichloro-3,5-dimethoxyphenyl)-7-oxopyrido[2,3-d]pyrimidin-8(7H)-yl)ethyl)phenyl)acrylamide], the IC50 at wild type FGFR-4 is under 0.05 µM; in assay [1] it was 0.66 µM; on wild type FGFR-3 it was over 1 µM; on wild type FGFR-2, over 1 µM; at wild type FGFR-1, over 1 µM.
Regarding `C=CC(=O)Nc1ccc(Cn2c(=O)c(-c3c(Cl)c(OC)cc(OC)c3Cl)cc3cnc(Nc4c(C)cccc4NC(=O)C=C)nc32)cc1` [CY-15-2, N-(4-((2-((2-acrylamido-6-methylphenyl)amino)-6-(2,6-dichloro-3,5-dimethoxyphenyl)-7-oxopyrido[2,3-d]pyrimidin-8(7H)-yl)methyl)phenyl)acrylamide], the half-maximal inhibitory concentration (IC50) on wild type FGFR-4 was under 0.05 µM; in assay [1], 0.49 µM; at wild type FGFR-3, over 1 µM; on wild type FGFR-2 it was over 1 µM; on wild type FGFR-1, over 1 µM.
Consider `C=CC(=O)Nc1cccc(C)c1Nc1ncc2cc(-c3c(Cl)c(OC)cc(OC)c3Cl)c(=O)n(CCCN3CCN(C(=O)C=C)CC3)c2n1` [CY-15-8], for which the IC50 on wild type FGFR-4 was under 0.05 µM.

For the origin of these results see US10253029B2, “Dual-warhead covalent inhibitors of FGFR-4” (Newave Pharmaceutical Inc., priority 2015, dated 2019).
